This experiment concerns the target human muscarinic M3 receptor (Homo sapiens (Human), UniProt P20309). Kind of experiment: Binding assay on human muscarinic M3 receptor ([3H]-methyl scopolamine displacement). The note with it: membranes overexpressing human M3 receptor, Ki from IC50 by Cheng-Prusoff, read-out: Binding Affinity to M3 Receptor, Ki. The protocol:
[Experimental Example 1] Binding Assay on Human Muscarinic M3 Receptor
Cell membrane proteins (Perkin Elmer) wherein human muscarinic M3 receptor was overexpressed, [^3H]-methyl scopolamine and test compounds in various concentration were cultured in 0.2 ml of Tris-HCl buffer at 25° C. for 120 minutes. The same was filtered under suction through glass fiber filter (Whatman GF/B), and then the filter was washed 5 times with 1 ml of Tris-HCl buffer. The radioactivity of [^3H]-methyl scopolamine adsorbed on the filter was measured by a liquid scintillation counter. Non-specific binding was evaluated under existence of 5 μM of atropine. Affinity of the compound of the present invention to muscarinic M3 receptor was calculated as the dissociation constant (Ki), which can be calculated from concentration (IC50) of test compounds inhibiting 50% of binding of [^3H]-methyl scopolamine (i.e. labeled ligand) according to Cheng and Prusoff [Cheng and Prusoff, Biochem. Pharmacol., 22, 3099, 1973].

One may read the Ki as a dissociation constant, usually derived from enzyme kinetics or from competition with a known ligand.

Chain of human muscarinic M3 receptor (P20309 whole entry): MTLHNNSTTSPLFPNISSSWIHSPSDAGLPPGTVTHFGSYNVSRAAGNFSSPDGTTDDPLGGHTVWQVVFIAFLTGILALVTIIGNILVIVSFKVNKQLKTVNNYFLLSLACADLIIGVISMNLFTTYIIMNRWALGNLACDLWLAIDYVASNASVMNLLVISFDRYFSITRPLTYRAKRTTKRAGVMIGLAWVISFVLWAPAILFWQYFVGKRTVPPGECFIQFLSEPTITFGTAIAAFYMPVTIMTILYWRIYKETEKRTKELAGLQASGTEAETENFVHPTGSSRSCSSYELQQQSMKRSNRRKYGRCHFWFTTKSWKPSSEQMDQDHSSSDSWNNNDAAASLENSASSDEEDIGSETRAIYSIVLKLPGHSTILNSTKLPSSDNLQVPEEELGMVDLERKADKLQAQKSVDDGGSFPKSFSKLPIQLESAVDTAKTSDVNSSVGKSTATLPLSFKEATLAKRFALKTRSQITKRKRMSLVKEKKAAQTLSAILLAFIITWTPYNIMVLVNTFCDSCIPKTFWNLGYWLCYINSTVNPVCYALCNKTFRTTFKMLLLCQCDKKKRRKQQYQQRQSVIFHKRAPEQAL

In the case of `CN1CC[C@@H](COC(=O)Nc2ccccc2-c2cc(Cl)cc(C(F)(F)F)c2)C1` [Example 138, (R)-(1-methylpyrrolidin-3-yl)methyl(3′-chloro-5′-(trifluoromethyl)-[1,1′-biphenyl]-2-yl)carbamate], the Ki is above 1000 nM.

Take `COc1cc(Cl)cc(-c2cc(F)ccc2NC(=O)OC[C@@H]2CCN(C)C2)c1` [Example 139, (R)-(1-methylpyrrolidin-3-yl)methyl(3′-chloro-5-fluoro-5′-methoxy-[1,1′-biphenyl]-2-yl)carbamate]: the Ki is 82.7 nM.

Take `CN1CC[C@@H](COC(=O)Nc2ccc(F)cc2-c2cc(Cl)cc(C(F)(F)F)c2)C1` [Example 140, (R)-(1-methylpyrrolidin-3-yl)methyl(3′-chloro-5-fluoro-5′-(trifluoromethyl)-[1,1′-biphenyl]-2-yl)carbamate]: the Ki is above 1000 nM.

Consider `COc1ccc(NC(=O)OC[C@@H]2CCN(C)C2)c(-c2ccc(F)c(Cl)c2)c1` [Example 147, (R)-(1-methylpyrrolidin-3-yl)methyl(3′-chloro-4′-fluoro-5-methoxy-[1,1′-biphenyl]-2-yl)carbamate], for which the Ki was 77.4 nM.

Regarding `CN1CC[C@@H](COC(=O)Nc2ccccc2-c2cccc(CO)c2)C1` [Example 152, (R)-(1-methylpyrrolidin-3-yl)-methyl (3′-(hydroxymethyl)-[1,1′-biphenyl]-2-yl)carbamate], the Ki was 147 nM.

Take `CN1CC[C@@H](COC(=O)Nc2ccccc2-c2cccc(C(N)=O)c2)C1` [Example 153, (R)-(1-methylpyrrolidin-3-yl)methyl(3′-carbamoyl-[1,1′-biphenyl]-2-yl)carbamate]: the Ki was above 1000 nM.

For `CN1CC[C@@H](COC(=O)Nc2ccccc2-c2cccc(N)c2)C1` [Example 154, (R)-(1-methylpyrrolidin-3-yl)methyl(3′-amino-[1,1′-biphenyl]-2-yl)carbamate], the Ki worked out at 16.7 nM.

With `CN1CC[C@@H](COC(=O)Nc2ccccc2-c2cccc(C#N)c2)C1` [Example 155, (R)-(1-methylpyrrolidin-3-yl)methyl(3′-cyano-[1,1′-biphenyl]-2-yl)carbamate], the Ki was above 1000 nM.

Turning to `CN1CC[C@@H](COC(=O)Nc2ccccc2-c2cccc(F)c2F)C1` [Example 158, (R)-(1-methylpyrrolidin-3-yl)methyl(2′,3′-difluoro-[1,1′-biphenyl]-2-yl)carbamate], the Ki was found to be 120 nM.

Regarding `CN1CCC[C@H]1COC(=O)Nc1ccccc1-c1cc(F)cc(F)c1` [Example 161, (S)-(1-methylpyrrolidin-2-yl)methyl(3′,5′-difluoro-[1,1′-biphenyl]-2-yl)carbamate], the Ki amounted to 8.92 nM.

Regarding `CN1CCC[C@H]1COC(=O)Nc1ccccc1-c1ccc(F)c(F)c1` [Example 162, (S)-(1-methylpyrrolidin-2-yl)methyl(3′,4′-difluoro-[1,1′-biphenyl]-2-yl)carbamate], the inhibition constant (Ki) is 5.34 nM.

Regarding `CN1CCC[C@H]1COC(=O)Nc1ccccc1-c1cc(F)c(F)cc1F` [Example 163, (S)-(1-methylpyrrolidin-2-yl)methyl (2′,4′,5′-trifluoro-[1,1′-biphenyl]-2-yl)carbamate], the Ki was determined as 16.1 nM.

Regarding `CN1CCC[C@H]1COC(=O)Nc1ccccc1-c1ccc(Cl)cc1` [Example 164, (S)-(1-methylpyrrolidin-2-yl)methyl(4′-chloro-[1,1′-biphenyl]-2-yl)carbamate], the Ki worked out at 36.9 nM.

Consider `CN1CCC[C@H]1COC(=O)Nc1ccccc1-c1ccc(Cl)cc1Cl` [Example 167, (S)-(1-methylpyrrolidin-2-yl)methyl(2′,4′-dichloro-[1,1′-biphenyl]-2-yl)carbamate], for which the Ki came to 67.3 nM.

As for `CN1CCC[C@H]1COC(=O)Nc1ccccc1-c1cccc(O)c1` [Example 168, (S)-(1-methylpyrrolidin-2-yl)methyl(3′-hydroxy-[1,1′-biphenyl]-2-yl)carbamate], the Ki worked out at 22.9 nM.

As for `CN1CCC[C@H]1COC(=O)Nc1ccccc1-c1cccc(C#N)c1` [Example 169, (S)-(1-methylpyrrolidin-2-yl)methyl(3′-cyano-[1,1′-biphenyl]-2-yl)carbamate], the Ki was determined as 282 nM.

Source of the values: patent US9828339B2, “Biphenyl derivatives and methods for preparing same” (DONG-A ST CO., LTD, priority 2013, dated 2017).
